Test results reported in patent US20230019236A1, “PROTEIN TYROSINE PHOSPHATASE INHIBITORS AND METHODS OF USE THEREOF” (Calico Life Sciences LLC, priority 2019, published 2023).

These compounds were tested against T1, His tagged full-length PTP1B protein (Homo sapiens, UniProt P18031) (assay: Mobility Shift Assay (MSA) used to determine potency of PTP1B inhibitors). Conditions: Table 2.
T1 construct: made in house
T1 sequence (P18031 with tags, fused parts or gaps): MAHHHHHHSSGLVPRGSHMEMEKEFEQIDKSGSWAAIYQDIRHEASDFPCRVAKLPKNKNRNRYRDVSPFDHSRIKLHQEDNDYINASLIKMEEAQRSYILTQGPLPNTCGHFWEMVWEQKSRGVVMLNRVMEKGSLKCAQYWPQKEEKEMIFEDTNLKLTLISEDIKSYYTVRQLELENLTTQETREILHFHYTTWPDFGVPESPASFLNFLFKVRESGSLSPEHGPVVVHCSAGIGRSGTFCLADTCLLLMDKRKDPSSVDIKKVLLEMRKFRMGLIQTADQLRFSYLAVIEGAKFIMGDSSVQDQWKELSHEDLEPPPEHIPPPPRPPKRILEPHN
Assay type: biochemical
Experimental: The enzymatic assay used to determine activity is a mobility shift assay using a LabChip EZ Reader by Caliper Life Sciences. The enzymatic reaction was carried out in assay buffer (50 mM HEPES pH 7.5, 1 mM EGTA, 10 mM EDTA, 0.01% Tween® 20, and 2 mM DTT). […] The enzyme (at 0.5 nM) was incubated with compound for 10 minutes at room temperature. […] The % inhibition was then used to calculate the IC50 values.
Compound COCC1(CCOc2ccc3cc(O)c(N4CC(=O)NS4(=O)=O)c(F)c3c2)CC1 [Compound 160, 5-(1-fluoro-3-hydroxy-7-{2-[1-(methoxymethyl)cyclopropyl]ethoxy}naphthalen-2-yl)-1λ^6,2,5-thiadiazolidine-1,1,3-trione] has an IC50 of 1 to 10 nM. CCS(=O)(=O)N1CC=C(c2ccc3cc(O)c(N4CC(=O)NS4(=O)=O)c(F)c3c2)C1 [Compound 295, 5-{7-[1-(ethanesulfonyl)-2,5-dihydro-1H-pyrrol-3-yl]-1-fluoro-3-hydroxynaphthalen-2-yl}-1λ^6,2,5-thiadiazolidine-1,1,3-trione] was tested, and the IC50 was < 1 nM. N#CC1(CNc2ccc3cc(O)c(N4CC(=O)NS4(=O)=O)c(F)c3c2)CC1 [Compound 181, 1-({[8-fluoro-6-hydroxy-7-(1,1,4-trioxo-1λ^6,2,5-thiadiazolidin-2-yl)naphthalen-2-yl]amino}methyl)cyclopropane-1-carbonitrile] showed an IC50 of 1 to 10 nM. For O=C1CN(c2c(O)cc3ccc(C4=CCN(C(=O)C5CC5)C4)cc3c2F)S(=O)(=O)N1 [Compound 237, 5-{7-[1-(cyclopropanecarbonyl)-2,5-dihydro-1H-pyrrol-3-yl]-1-fluoro-3-hydroxynaphthalen-2-yl}-1λ^6,2,5-thiadiazolidine-1,1,3-trione], the IC50 was < 1 nM. Work on O=C1CN(c2c(O)cc3ccc(C4CNC4)cc3c2F)S(=O)(=O)N1 [Compound 226, 5-[7-(azetidin-3-yl)-1-fluoro-3-hydroxynaphthalen-2-yl]-1λ^6,2,5-thiadiazolidine-1,1,3-trione] yielded an IC50 of 10 to 100 nM. C[C@H](O)CCOc1ccc2cc(O)c(N3CC(=O)NS3(=O)=O)c(F)c2c1 [Compound 147, 5-{1-fluoro-3-hydroxy-7-[(3S)-3-hydroxybutoxy]naphthalen-2-yl}-1λ^6,2,5-thiadiazolidine-1,1,3-trione] gave an IC50 of 1 to 10 nM. Compound COCCNCCOc1ccc2cc(O)c(N3CC(=O)NS3(=O)=O)c(F)c2c1 [Compound 138, 5-(1-fluoro-3-hydroxy-7-{2-[(2-methoxyethyl)amino]ethoxy}naphthalen-2-yl)-1λ^6,2,5-thiadiazolidine-1,1,3-trione] has an IC50 of 10 to 100 nM. With N#CCCCNc1ccc2cc(O)c(N3CC(=O)NS3(=O)=O)c(F)c2c1 [Compound 174, 4-{[8-fluoro-6-hydroxy-7-(1,1,4-trioxo-1λ^6,2,5-thiadiazolidin-2-yl)naphthalen-2-yl]amino}butanenitrile] the IC50 was > 100 nM. With O=C1CN(c2c(O)cc3ccc(C4=CCN(S(=O)(=O)c5ccoc5)C4)cc3c2F)S(=O)(=O)N1 [Compound 312, 5-{1-fluoro-7-[1-(furan-3-sulfonyl)-2,5-dihydro-1H-pyrrol-3-yl]-3-hydroxynaphthalen-2-yl}-1λ^6,2,5-thiadiazolidine-1,1,3-trione] the IC50 was < 1 nM. CC(C)S(=O)(=O)N1CC=C(c2ccc3cc(O)c(N4CC(=O)NS4(=O)=O)c(F)c3c2)C1 [Compound 296, 5-{1-fluoro-3-hydroxy-7-[1-(propane-2-sulfonyl)-2,5-dihydro-1H-pyrrol-3-yl]naphthalen-2-yl}-1λ^6,2,5-thiadiazolidine-1,1,3-trione] was tested, and the IC50 was < 1 nM. O=C1CN(c2c(O)cc3ccc(C4=CCN(S(=O)(=O)c5ccsc5)C4)cc3c2F)S(=O)(=O)N1 [Compound 314, 5-{1-fluoro-3-hydroxy-7-[1-(thiophene-3-sulfonyl)-2,5-dihydro-1H-pyrrol-3-yl]naphthalen-2-yl}-1λ^6,2,5-thiadiazolidine-1,1,3-trione] was tested, and the IC50 was < 1 nM. For O=C1CN(c2c(O)cc3ccc(OCCC4CC4)cc3c2F)S(=O)(=O)N1 [Compound 211, 5-[7-(2-cyclopropylethoxy)-1-fluoro-3-hydroxynaphthalen-2-yl]-1λ^6,2,5-thiadiazolidine-1,1,3-trione], the IC50 was < 1 nM. Compound O=C(CNc1ccc2cc(O)c(N3CC(=O)NS3(=O)=O)c(F)c2c1)NCCC1CC1 [Compound 268, N-(2-cyclopropylethyl)-2-{[8-fluoro-6-hydroxy-7-(1,1,4-trioxo-1λ^6,2,5-thiadiazolidin-2-yl)naphthalen-2-yl]amino}acetamide] has an IC50 of 10 to 100 nM.
